We go through 30 sequences from the OligoGym collection.

The series deals with HSD17B13. Particulars: ASO, HepaRG.

After the bases stand the sugars from the 5' end (letter, count) and the backbone: PS all phosphorothioate, else s phosphorothioate and o phosphodiester by linkage. Methylation of C is not given here. e = 2'-O-(2-methoxyethyl) (MOE); k = constrained ethyl (cEt); d = 2'-deoxy (DNA); m = 2'-O-methyl

Consider CTAAAGGAGATCTGAG (sugars k3 d10 k3, PS), for which the target mRNA inhibition (1 µM) was 47%.
On the same count and under the same terms, for GCCCATCCCCTAAGTT (sugars k3 d10 k3, PS) the value was 33%.
Under “1 µM”, GTTATTGTAGGGATTG (sugars k3 d10 k3, PS) returned a target mRNA inhibition of 69%.
With CTTGATGTAGTGGGAG (sugars k3 d10 k3, PS), the target mRNA inhibition (0.02 µM) came out at 0%; the target mRNA inhibition (0.078 µM) was 4%; the target mRNA inhibition (0.313 µM) came out at 21%; the target mRNA inhibition (1 µM) was found to be 83%; the target mRNA inhibition (1.25 µM) amounted to 62%; the target mRNA inhibition (5 µM) is 80%.
Where the note is “1 µM”, AGTTTTCGGCACTCAG (sugars k3 d10 k3, PS) displayed a target mRNA inhibition of 16%.
Regarding ACAATATGGGATGAGG (sugars k3 d10 k3, PS), the target mRNA inhibition came out at 29% (0.02 µM); 7% (0.078 µM); 43% (0.313 µM); 71% (1 µM); 65% (1.25 µM); 85% (5 µM).
In turn, AATTTCATACAGTTCG (sugars k3 d10 k3, PS) came in with a target mRNA inhibition (1 µM) of 66%.
Turning to TCATTCGAATTTCTTC (sugars k3 d10 k3, PS), the target mRNA inhibition runs as follows: (0.02 µM) 16%; (0.078 µM) 31%; (0.313 µM) 54%; (1 µM) 76%; (1.25 µM) 79%; (5 µM) 90%.
For the sequence “TAATAGCCAGTACAGT (sugars kkdddddddddkekek, PS)”, where the note is “1 µM”, the target mRNA inhibition was 44%.
The sequence “ATATTCTGTGGCATGG (sugars k3 d9 k3 e1, PS)” showed a target mRNA inhibition (1 µM) of 58%.
The same measure, in the same setting: for TGCTTTAGCTTAAACT (sugars k3 d10 k3, PS) the value was 51%; for TAACTACATGACCTGG (sugars k3 d10 k3, PS), 37%; for ATCATACCACATACCC (sugars k3 d10 k3, PS), 45%.
On the same count and under the same terms, the figure for TTATTCACCACGATTG (sugars k3 d10 k3, PS) is 40%; for TTGCAGTTATTAGAAG (sugars k3 d10 k3, PS) it is 13%.
For the setting “1 µM”, ATTACAACCTGGTTTC (sugars k3 d10 k3, PS) showed a target mRNA inhibition of 50%.
Under “1 µM”, GGCTTATGAAGTTAGT (sugars k3 d10 k3, PS) yielded a target mRNA inhibition of 59%.
The same measure, in the same setting: the figure for TCCAAAGATGAGAGTC (sugars k3 d10 k3, PS) is 17%.
The same measure, in the same setting: for CGTAAAATTGTGTCTC (sugars k3 d10 k3, PS) the value was 43%; for GCCAGATTGCACAAAC (sugars k3 d10 k3, PS), 60%; for TTGTATTTCGCTACTG (sugars k3 d10 k3, PS), 58%.
On to CTAAGTTATTATCCCC (sugars k3 d10 k3, PS), for which the target mRNA inhibition reads like this: (0.02 µM) 16%; (0.078 µM) 22%; (0.313 µM) 48%; (1 µM) 70%; (1.25 µM) 72%; (5 µM) 95%.
TAGGAGTAGATGATGG (sugars k3 d10 k3, PS) came in with a target mRNA inhibition (1 µM) of 15%.
In the case of “GATTAGTCTTGATGTA (sugars k3 d9 k3 e1, PS)”, for the setting “1 µM”, the target mRNA inhibition came out at 48%.
For the setting “1 µM”, “AATAATAGCTCTATTG (sugars k3 d9 k3 e1, PS)” displayed a target mRNA inhibition of 3%.
For “GATATTCTGTGGCATG (sugars kkdddddddddkekek, PS)”, the target mRNA inhibition (1 µM) amounted to 52%.
In turn, CTAACCTGACACATAT (sugars k3 d10 k3, PS) returned a target mRNA inhibition (1 µM) of 18%.
The sequence TGTATGAGGTCTCTCA (sugars k3 d10 k3, PS) yielded a target mRNA inhibition (1 µM) of 66%.
In turn, “GGAGUGCATCTTAAGA (sugars k3 d1 m1 d8 k3, PS)” yielded a target mRNA inhibition (1 µM) of 32%.
For the setting “1 µM”, “CAGGTTGAGATAAAGC (sugars kkdddddddddkekek, PS)” had a target mRNA inhibition of 53%.
